What was measured:
Format in all cases: cell-based
primary rat hepatocytes [1] = test: TGF-β1-induced cytotoxicity, LDH release; settings: 1 nM TGF-β1 36 hours; 100 μM compound; FIG. 8A
Procedure: Primary rat hepatocytes were isolated from male rats (100-150 grams) by collagenase perfusion (as described by Solá S, et al., 2003, Journal of Biological Chemistry 278: 48831-48838)). Briefly, rats were anesthetized with phenobarbital sodium (100 mg/kg body weight) injected into the peritoneal cavity. After administration of heparin (200 units/kg body weight) in the tail vein, the animal's abdomen was opened and the portal vein exposed and cannulated. The liver was then perfused at 37° C. in situ with a calcium-free Hanks' Balanced Salt Solution (HBSS) for about 10 minutes, and then with 0.05% collagenase type IV in calcium-present HBSS for another 10 minutes. […] Cell viability was determined by trypan blue exclusion and was typically 80-85%. […]
The ApoTox-Glo™ Triplex Assay (Promega Corp., Madison, Wis., USA) was used to evaluate cell viability, cytotoxicity and caspase-3/7 activity, according to the manufacturer's protocol, using a GloMax+ Multi Detection System (Promega Corp.). General cell death was also evaluated using the lactate dehydrogenase (LDH) Cytotoxicity Detection Kit^PLUS (Roche Diagnostics GmbH, Mannheim, Germany), following the manufacturer's instructions. […]

primary rat hepatocytes [2] = test: Cytotoxicity of compound alone (ApoTox-Glo Triplex / LDH Cytotoxicity Detection Kit)
Procedure: (§1) Primary rat hepatocytes were isolated from male rats (100-150 grams) by collagenase perfusion (as described by Solá S, et al., 2003, Journal of Biological Chemistry 278: 48831-48838)). Briefly, rats were anesthetized with phenobarbital sodium (100 mg/kg body weight) injected into the peritoneal cavity. After administration of heparin (200 units/kg body weight) in the tail vein, the animal's abdomen was opened and the portal vein exposed and cannulated. The liver was then perfused at 37° C. in situ with a calcium-free Hanks' Balanced Salt Solution (HBSS) for about 10 minutes, and then with 0.05% collagenase type IV in calcium-present HBSS for another 10 minutes. Hepatocyte suspensions were obtained by passing collagenase-digested livers through 125 μm gauze and washing cells in Complete William's E medium (William's E medium, Sigma-Aldrich Corp., St Louis, Mo., USA) supplemented with 26 mM sodium bicarbonate, 23 mM HEPES, 0.01 units/mL insulin, 2 mM L-glutamine, 10 nM dexamethasone, 100 units/mL penicillin, and 10% heat-inactivated fetal bovine serum (Invitrogen Corp., Carlsbad, Calif., USA). Viable primary rat hepatocytes were enriched by low-speed centrifugation at 200 g for 3 minutes. Cell viability was determined by trypan blue exclusion and was typically 80-85%. After isolation, hepatocytes were resuspended in Complete William's E medium and plated on Primaria™ tissue culture dishes (BD Biosciences, San Jose, Calif., USA) at 5×10^4 cells/cm^2. Cells were maintained at 37° C. in a humidified atmosphere of 5% CO2 for 6 hours to allow attachment. Plates were then washed with medium to remove dead cells and incubated in Complete William's E medium supplemented with either 100-400 μM UDCA (Sigma-Aldrich Corp.), 100-400 μM deuterated UDCA (compound 5), or no addition (control). Eight hours after pre-incubation, cells were exposed to 1 nM recombinant human TGF-β1 (R&D Systems Inc., Minneapolis, Minn., USA) for 36 hours, or to 50 or 100 μM DCA for 16 hours before processing for cell viability, cytotoxicity and apoptosis assays.
The ApoTox-Glo™ Triplex Assay (Promega Corp., Madison, Wis., USA) was used to evaluate cell viability, cytotoxicity and caspase-3/7 activity, according to the manufacturer's protocol, using a GloMax+ Multi Detection System (Promega Corp.). General cell death was also evaluated using the lactate dehydrogenase (LDH) Cytotoxicity Detection Kit^PLUS (Roche Diagnostics GmbH, Mannheim, Germany), following the manufacturer's instructions.

primary rat hepatocytes [3] = test: DCA-induced cytotoxicity, LDH release
Procedure: as §1, with “PrimariaTM” for “Primaria™”, “assays. The ApoTox-GloTM Triplex Assay (Promega Corp., Madison, Wis., USA) was used to evaluate cell viability, cytotoxicity and caspase-3/7 activity, according to the manufacturer's protocol, using a GloMax+ Multi Detection System (Promega Corp.). General cell death was also evaluated using the lactate dehydrogenase (LDH) Cytotoxicity Detection Kit^PLUS (Roche Diagnostics GmbH, Mannheim, Germany), following the manufacturer's instructions. FIG. 7 illustrates that Compound 5 prevents DCA-induced cytotoxicity and apoptosis in primary rat hepatocytes. […] Results are expressed as means±SEM of at least three experiments. *p<0.01 from control; § p<0.05 and †p<0.01 from respective DCA.” for “assays.”

Compound | more effective than UDCA at inhibiting TGF-β1-induced LDH release (primary rat hepatocytes [1]) | cytotoxicity compared with UDCA (primary rat hepatocytes [2]; 400 μM, 24 and 44 hours) | increase in cytotoxicity (primary rat hepatocytes [2]; 400 μM, 24 hours) | increase in cytotoxicity (primary rat hepatocytes [2]; 400 μM, 44 hours) | signs of cytotoxicity (primary rat hepatocytes [2]; 100 and 200 μM) | inhibition of DCA-induced LDH release (primary rat hepatocytes [3]; 50 μM DCA 16 hours, 100 μM compound pre-incubated 8 hours, FIG. 7A) | protective effect on LDH release greater than UDCA (primary rat hepatocytes [3]; 50 μM DCA, Compound 5 versus UDCA) | protection against DCA-induced LDH release (primary rat hepatocytes [3]; 100 μM DCA, compared with 50 μM DCA) | inhibition at 100 µM (primary rat hepatocytes [3]; Rattus norvegicus, Hepatocyte, 50 μM DCA 16 hours, 100 μM compound pre-incubated 8 hours, FIG. 7A)
7,8-[^2H]-3α,7α-dihydroxy-5β-cholan-24-oic acid/7-[^2H]-3α,7α-dihydroxy-5β-cholan-24-oic acid [Compound 5] | about 10% | comparable to UDCA cytotoxicity | ~2% | ~15% | no relevant signs of cytotoxicity | 90% | more than 10% | Slightly reduced protection | –
C[C@H](CCC(=O)O)[C@H]1CC[C@H]2[C@@H]3[C@@H](O)C[C@@H]4C[C@H](O)CC[C@]4(C)[C@H]3CC[C@]12C [UDCA, Ursodeoxycholic acid, reference compound] | – | – | – | – | – | – | – | – | 70%

— patent US10144758B2, “Deuterated bile acids” (Metselex, Inc., priority 2013, dated 2018)
